In patent publication US10450288B2, “Hydroxy formamide derivatives and their use” (GLAXOSMITHKLINE INTELLECTUAL PROPERTY (NO.2) LIMITED, priority 2014, dated 2019):
Where a name gives a salt, the structure may show the parent alone.

Key:
[1] = system: human cardiac fibroblasts; assay: Cell-based inhibition assay of generation of procollagen I C-terminal propeptide (PICP), PICP ELISA; conditions: Cardiac fibroblast, read-out: pIC50, PICP cellular inhibition assay (converted)
Procedure, shortened: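 Cardiac fibroblasts (passage ≤6) treated 24–48 h at 37 °C with compounds in ficoll crowding medium containing 100 μM ascorbic acid, DMSO <0.3%. PICP secreted into the medium was quantified by ELISA, normalised to untreated controls and fitted to log(inhibitor)–response to give pIC50.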

[2] = system: human cardiac fibroblasts; assay: Cell-based inhibition assay of mature collagen deposition (immunostaining); conditions: Cardiac fibroblast; human cardiac fibroblasts, crowding media, 24 to 48 hr, collagen I immunostaining normalized to nuclei; read-out: pIC50, mature collagen cellular inhibition assay (converted)
Protocol: Cell-Based Inhibition Assay of Generation of Procollagen I C-Terminal Propeptide (PICP) and Mature Collagen:
An adaptation of the collagen deposition assay described by Chen, C. Z. C., et al., British Journal of Pharmacology, 2009, 158, 1196-1209 was used to examine effect of compounds on procollagen I processing and collagen deposition. In the adapted assay, human cardiac fibroblasts were utilized. Processing of procollagen I was determined by a PICP ELISA assay and deposition of mature collagen was determined by immunostaining.
Human cardiac fibroblasts were cultured and maintained until passage 6 in FGM-3 media (Lonza, #CC-3132) in a 37° C. humidified incubator with 5% CO2. They were then seeded in 96-well black wall, clear bottom plates at 10,000 to 15,000 cells per well in eagle's minimum essential media (EMEM, ATCC #30-2003) containing 10% fetal bovine serum (FBS, Life Technologies #10082147), 1% Glutamax (Life Technologies #35050061) and 1% Penicillin and Streptomycin (Life Technologies #15070063). These cultures were placed in 37° C. incubator. The next day, media were removed by aspiration and cells were rinsed with phosphate buffered saline. Crowding media (also called ficoll media) was prepared by adding 112.5 mg/ml of ficoll70 and 75 mg/ml ficoll400 (GE healthcare #17-0310-10 and 17-0300-10, respectively), 100 μM ascorbic acid, 1% Glutamax and 1% Penicillin and Streptomycin to EMEM media. Test compounds (dissolved in DMSO) were diluted into crowding media and then added to the cells. Final concentration of DMSO in crowding media was less than 0.3%. Cells were treated for 24 to 48 hr in a 37° C. incubator. At the end of the treatment period, cell media were collected. The level of PICP in the media were determined by a PICP ELISA assay (Quidel #8003) following the manufacturer's protocol. Potencies of test compounds were calculated by fitting PICP levels, relative to untreated controls, to log (inhibitor) vs. response equation using Graphpad Prism software 5.0 and expressed as pIC50.
For some compounds, deposition of mature collagen was measured by immunostaining in addition to PICP levels. At the end of the treatment period, cells on culture plate were fixed with 100% methanol (prechilled to −20° C.) for 10 min. Then the cells were immunostained with mouse anti-mature collagen I antibody (1:500 dilution, Sigma#C2456), anti-mouse secondary antibody Alexa647 (1:500 dilution, Invitrogen#A21236) and Hoechst (for nuclei, 2 μg/ml, Invitrogen#H3596). Fluorescent image acquisition was done using the Operetta High Content Imaging system (Perkin Elmer). For each image field, the intensity of mature collagen staining was normalized with the number of nuclei. Normalized collagen levels were used to calculate the potency of test compounds with Graphpad Prism software, as described above.

[3] = human cardiac fibroblasts, crowding media, 24 to 48 hr, PICP ELISA of media

SMILES | IC50 [1, 3] [µM] | IC50 [2] [µM] | IC50 ([1]; Homo sapiens) [µM]
CCCCC[C@@H](C(=O)NCNC(=O)c1ccc(-c2cc(OCC(=O)O)cc(C(=O)O)c2O)o1)[C@@H](CC)N(O)C=O [Example 121, 5-(carboxymethoxy)-2-hydroxy-3-(5-((((R)-2-((R)-1-(N-hydroxyformamido)propyl)heptanamido)methyl)carbamoyl)furan-2-yl)benzoic acid] | < 3.98 | < 1 | –
CCCCC[C@@H](C(=O)NCNC(=O)c1ccc(-c2cc(OCC)cc(P(=O)(O)O)c2)o1)[C@@H](CC)N(O)C=O [Example 96, (3-ethoxy-5-(5-((((R)-2-((R)-1-(N-hydroxyformamido)propyl)heptanamido)methyl)carbamoyl)furan-2-yl)phenyl)phosphonic acid] | < 3.98 | < 1 | –
CCCCC[C@@H](C(=O)NCNC(=O)c1ccc(-c2ccc(C(=O)N[C@@H](CC(=O)O)C(=O)O)c(OCC(=O)O)c2)o1)[C@@H](CC)N(O)C=O [Example 126, (S)-2-(2-(carboxymethoxy)-4-(5-((((R)-2-((R)-1-(N-hydroxyformamido)propyl)heptanamido)methyl)carbamoyl)furan-2-yl)benzamido) succinic acid] | < 3.98 | < 1 | –
CCCCC[C@@H](C(=O)NCNC(=O)c1ccc(-c2cc(OCC(=O)O)cc(C(=O)O)c2)o1)[C@@H](CC)N(O)C=O [Example 113, 3-(carboxymethoxy)-5-(5-((((R)-2-((R)-1-(N-hydroxformamido)propyl)heptanamido)methyl)carbamoyl)furan-2-yl)benzoic acid] | < 3.98 | < 1 | –
CCCCC[C@@H](C(=O)NCNC(=O)c1ccc(-c2ccccc2)o1)[C@@H](CC)N(O)C=O [Example 24, N-(((R)-2-((R)-1-(N-hydroxyformamido)propyl)heptanamido)methyl)-5-phenylfuran-2-carboxamide] | < 3.98 | < 1 | –
CCCCC[C@@H](C(=O)NCNC(=O)c1ccc(-c2ccc(CC(=O)N[C@@H](CC(=O)O)C(=O)O)c(OCC)c2)o1)[C@@H](CC)N(O)C=O [Example 75, (S)-2-(2-(2-ethoxy-4-(5-((((R)-2-((R)-1-(N-hydroxyformamido)propyl)heptanamido)methyl)carbamoyl)furan-2-yl)phenyl)acetamido) succinic acid] | < 3.98 | < 1 | –
CCCCC[C@@H](C(=O)NCNC(=O)c1ccc(-c2cc(OCC)cc(C(=O)O)c2O)o1)[C@@H](CC)N(O)C=O [Example 81, 5-ethoxy-2-hydroxy-3-(5-((((R)-2-((R)-1-(N-hydroxy-formamido)propyl)heptanamido)methyl)carbamoyl)furan-2-yl)benzoic acid] | < 3.98 | < 1 | –
CCCCC[C@@H](C(=O)NCNC(=O)c1ccc(-c2cc(O)c(C(=O)O)c(OCC)c2)o1)[C@@H](CC)N(O)C=O [Example 128, 2-ethoxy-6-hydroxy-4-(5-((((R)-2-((R)-1-(N-hydroxyformamido)propyl)heptanamido)methyl)carbamoyl)furan-2-yl)benzoic acid] | < 3.98 | < 1 | –
CCOc1cc(C(=O)N(CC(=O)O)CC(=O)O)cc(-c2ccc(C(=O)NCNC(=O)[C@H](CCc3ccc(F)cc3F)[C@@H](CC)N(O)C=O)o2)c1 [Example 122, 2,2′-((3-(5-((((2R,3R)-2-(2,4-difluorophenethyl)-3-(N-hydroxyformamido)pentanamido)methyl)carbamoyl)furan-2-yl)-5-ethoxybenzoyl)azanediyl)diacetic acid] | < 3.98 | < 1 | –
CCCCC[C@@H](C(=O)NCNC(=O)c1ccc(-c2ccc(P(=O)(O)O)c(OCC)c2)o1)[C@@H](CC)N(O)C=O [Example 98, (2-ethoxy-4-(5-((((R)-2-((R)-1-(N-hydroxyformamido)propyl)heptanamido)methyl)carbamoyl)furan-2-yl)phenyl)phosphonic acid] | < 3.98 | < 1 | –
CCCCC[C@@H](C(=O)NCNC(=O)c1ccc(-c2ccc(C(=O)NCP(=O)(O)O)c(OCC)c2)o1)[C@@H](CC)N(O)C=O [Example 139, ((2-ethoxy-4-(5-((((R)-2-((R)-1-(N-hydroxyformamido)propyl)heptanamido)methyl)carbamoyl)furan-2-yl)benzamido)methyl)phosphonic acid] | < 3.98 | < 1 | –
CCCCC[C@@H](C(=O)NCNC(=O)c1ccc(-c2cc(OCC)cc(C(=O)N[C@@H](CC(=O)O)C(=O)O)c2)o1)[C@@H](CC)N(O)C=O [Example 77, (S)-2-(3-ethoxy-5-(5-((((R)-2-((R)-1-(N-hydroxyformamido)propyl)heptanamido)methyl)carbamoyl)furan-2-yl)benzamido) succinic acid] | < 3.98 | < 1 | –
CCCCC[C@@H](C(=O)NCNC(=O)c1ccc(-c2cc(OCC(=O)O)cc(P(=O)(O)O)c2)o1)[C@@H](CC)N(O)C=O [Example 145, 2-(3-(5-((((R)-2-((R)-1-(N-hydroxyformamido)propyl)heptanamido)methyl)carbamoyl)furan-2-yl)-5-phosphonophenoxy) acetic acid] | < 3.98 | – | –
CCCCC[C@@H](C(=O)NCNC(=O)c1ccc(-c2ccc(C(=O)N[C@H](CC(=O)O)C(=O)O)cc2)o1)[C@@H](CC)N(O)C=O [Example 133] | < 3.98 | – | –
CCCCC[C@@H](C(=O)NCNC(=O)c1ccc(-c2cc(CNCP(=O)(O)O)cc(OCC)c2)o1)[C@@H](CC)N(O)C=O [Example 137, (((3-ethoxy-5-(5-((((R)-2-((R)-1-(N-hydroxyformamido)propyl)heptanamido)methyl)carbamoyl)furan-2-yl)benzyl)amino)methyl)phosphonic acid, trifluoroacetic acid salt] | < 3.98 | – | –
CCCCC[C@H](CN(O)C=O)C(=O)NCNC(=O)c1ccc(-c2cccc(P(C)(=O)O)c2)o1 [Example 94, (3-(5-((((R)-2-((N-hydroxyformamido)methyl)heptanamido)methyl)carbamoyl)furan-2-yl)phenyl)(methyl)phosphinic acid] | < 3.98 | – | –
CCCCC[C@H](CN(O)C=O)C(=O)NCNC(=O)c1ccc(-c2cccc([N+](=O)[O-])c2)o1 [Example 105, (R)—N-((2-((N-hydroxyformamido)methyl)heptanamido)methyl)-5-(3-nitrophenyl)furan-2-carboxamide] | < 3.98 | – | –
CCCCC[C@@H](C(=O)NCNC(=O)c1ccc(-c2cc(OCC)cc(P(=O)(O)OC)c2)o1)[C@@H](CC)N(O)C=O [Example 101, methyl hydrogen (3-ethoxy-5-(5-((((R)-2-((R)-1-(N-hydroxyformamido)propyl)heptanamido)methyl)carbamoyl)furan-2-yl)phenyl)phosphonate] | – | – | < 3.98
CCCCC[C@@H](C(=O)NCNC(=O)c1ccc(-c2cc(O)cc(P(=O)(O)O)c2)o1)[C@@H](CC)N(O)C=O [Example 138, (3-hydroxy-5-(5-((((R)-2-((R)-1-(N-hydroxyformamido)propyl)heptanamido)methyl)carbamoyl)furan-2-yl)phenyl) phosphonic acid] | < 3.98 | – | –
CCCCC[C@@H](C(=O)NCNC(=O)c1ccc(-c2cc(OCC)cc(C(=O)N[C@H](CC(=O)O)C(=O)O)c2)o1)[C@@H](CC)N(O)C=O [Example 84, (R)-2-(3-ethoxy-5-(5-((((R)-2-((R)-1-(N-hydroxy-formamido)propyl)heptanamido)methyl)carbamoyl)furan-2-yl)benzamido) succinic acid] | < 3.98 | – | –
CCCCC[C@H](CN(O)C=O)C(=O)NCNC(=O)c1ccc(-c2ccc(F)c(C(=O)O)c2)o1 [Example 91, (R)-2-fluoro-5-(5-(((2-((N-hydroxy-formamido)methyl)heptanamido)methyl)carbamoyl)furan-2-yl)benzoic acid] | < 3.98 | – | –
